Data published in patent publication US20250281449A1, “NITROGEN-CONTAINING ANALOGS OF SALINOMYCIN FOR USE IN MULTIPLE MYELOMA (MM)” (Centre National de la Recherche Scientifique, priority 2021, published 2025).

Assays:
Type in all cases: cell-based, human
Phospho-H2A.X (S139) = assay: DNA damage response, Phospho-H2A.X (S139) western blot; settings: IC50 and 200 nM, 24H
Description: Cells were treated with iron chelators (80 μM Deferasirox), and Ironomycin (IC50 and 200 nM) during 24H. Protein levels of Phospho-H2A.X (S139) were analyzed by western blot and normalized by the histone 3 protein level.
(§1) The total cell lysates were obtained with RIPA 1× lysis buffer (#9806, Cell Signaling®) according with the supplier recommendations.
(§2) Protein lysates migrate on 10% polyacrylamide gel (NP-0301, Novex, Life Technologies®), in MOPS 1× running buffer (NP0001, Novex, Life Technologies®) or MES 1× running buffer NP-0002, Novex, Life Technologies®) and proteins are transferred to nitrocellulose membrane (1B301001, I-Blot Transfert Starck, NuPAGE, Life Technologies®). The primary antibodies mouse-anti-phospho-Histone H2A.X (Ser139) clone JBW301 ( 1/1000, Merck Millipore), anti-H3K36me3 (#ab9050, abcam®), anti-H3K27me3 (#9733, Cell Signaling®), anti-MMSET (#65127, Cell Signaling® et ab75359, abcam), anti-MYC (#5605, Cell Signaling®) were incubated in TBS-Tween 20 0.1% (Tris-Buffered Saline, pH 7.4) with 5% non-fat milk or Bovine serum albumin (Sigma-Aldrich, A7906). Protein levels are objectified by labeling with an anti-α-tubulin mouse monoclonal antibody (Sigma, T9026, St Louis, MO, USA 1/1000) or anti-Histone 3 (ab18521, abcam). […] Quantification of protein levels was performed with Image J® software (National Institutes of Health, Bethesda, MD, USA).

XG7 and OPM-2 cells = assay: Cell death with pan caspase inhibitor Q-VD-Oph pretreatment, AnnexinV-PE; settings: 20 μM Q-VD-Oph pretreatment, 48H
Description: XG7 and OPM-2 cells were pretreated at least 30 minutes by 20 μM of Q-VD-Oph as pan caspase inhibitor before treatment. Cells were treated as indicated during 48H, effect of Ironomycin on cell death induction was analyzed using AnnexinV-PE staining by flow cytometry (B). N=4.
(§3) Annexin V-PE staining for apoptosis analysis was performed using the “PE Annexin V Apoptosis Detection Kit I” (559763, Becton Dickinson).

XG-7 cells = assay: Drug combination concentration matrix, viability by ATP quantification, Bliss synergy
Description: XG-7 or XG2 WT (XG2 neg) or XG2 melphalan resistant (XG2 Melph R) cell lines were respectively treated with increasing concentrations of ironomycin combined with melphalan during 96 h and cell viability was tested by ATP quantification to obtain the viability matrix. The synergy matrix was calculated as described in Material and Methods.
XG-7cells were treated with increasing concentrations of ironomycin combined with lenalidomide during 96 h and cell viability was tested by ATP quantification to obtain the viability matrix. The synergy matrix was calculated as described in Material and Methods.
XG-7cells were treated with increasing concentrations of ironomycin combined with pomalidomide during 96 h and cell viability was tested by ATP quantification to obtain the viability matrix. The synergy matrix was calculated as described in Material and Methods.
XG-7cells were treated with increasing concentrations of ironomycin combined with carfilzomib during 96 h and cell viability was tested by ATP quantification to obtain the viability matrix. The synergy matrix was calculated as described in Material and Methods.
XG-7cells were treated with increasing concentrations of ironomycin combined with AZD-5991 during 96 h and cell viability was tested by ATP quantification to obtain the viability matrix. The synergy matrix was calculated as described in Material and Methods
HMCL cell lines were cultured for 4 days in 96-well flat-bottom microtiter plates in RPMI 1640 medium or DMEM medium, 10% or 20% FCS (control medium) in the presence of various compounds. The number of viable cells in culture was determined using the Cell Titer-Glo Luminescent Cell Viability Assay from Promega, Madison, WI, USA using a Centro LB 960 luminometer (Berthold Technologies, Bad Wildbad, Germany).
The interaction between the drugs tested in vitro was investigated with a concentration matrix test, in which increasing concentration of each single drug were assessed with all possible combinations of the other drugs. For each combination, the percentage of expected growing cells in the case of effect independence was calculated according to the Bliss equation (Combes et al., 2019): […]
where fuC is the expected fraction of cells unaffected by the drug combination in the case of effect independence, and fuA and fuB are the fractions of cells unaffected by treatment A and B, respectively. The difference between the fraction of living cells in the cytotoxicity test and the fuC value was considered as an estimation of the interaction effect, with […]. Synergy matrix was built with the R package “SynergyFinder”.

MYC = assay: Western blot of MYC protein level; settings: 24H
Description: Cells were treated with iron chelators (80 μM Deferasirox), and Ironomycin (IC50 and 200 nM) during 24H. Protein levels of MMSET (isoforms I and II), MYC, H3K36me3 and H3K27me3 were analyzed by western blot. MMSET (isoforms I and II) and MYC signal were normalized by α-tubulin protein level, H3K36me3 and H3K27me3 signal were normalized by total histone 3 protein level.
as §1
as §2, with “A7906).” for “A7906). Protein levels are objectified by labeling with an anti-α-tubulin mouse monoclonal antibody (Sigma, T9026, St Louis, MO, USA 1/1000) or anti-Histone 3 (ab18521, abcam).”

[1] = tested on: XG-1, XG-7 and OPM-2 cell lines; assay: Apoptosis induction (Annexin V staining or PARP-cleavage, flow cytometry); settings: IC50 of ironomycin, 72H
Description: XG-1, XG-7 and OPM-2 cell lines were treated with IC50 of ironomycin during 72H. Apoptosis induction was monitored by Annexin V staining (XG-1 and XG-7) or PARP-cleavage and analyzed by flow cytometry (A).
as §3
The cell cycle progression was studied by flow cytometry using the Apoptosis, DNA Damage, and Cell Proliferation Kit (562253, Becton Dickinson). Briefly, cells were labeled with bromodeoxyuridine (BrdU), an analog of the DNA precursor thymidine that can be incorporated into newly synthesized DNA and detected with an antibody against BrdU to measure cell proliferation. After this labeling, the cells were fixed, permeabilized and treated with DNase to expose the BrdU epitopes. Following this treatment, cells were simultaneously stained with fluorochrome-labeled anti-BrdU, anti-cleaved Poly A DP-ribose polymerase 1 (PARP), anti-H2AX phosphorylated at serine 139. They were also stained with DAPI to determine DNA content. Finally, cells were resuspended in staining buffer and analyzed by flow cytometry (Fortessa, Becton Dickinson).

C#CCN[C@@H]1C=C[C@]2(O[C@H]([C@@H](CC)C(=O)[C@@H](C)[C@@H](O)[C@H](C)[C@@H]3O[C@@H]([C@@H](CC)C(=O)O)CC[C@@H]3C)[C@@H](C)C[C@H]2C)O[C@@]12CC[C@@](C)([C@H]1CC[C@](O)(CC)[C@H](C)O1)O2 [Ironomycin]
DNA double strand breaks (Phospho-H2A.X (S139)): DNA double strand breaks
inhibition of induced apoptosis by pan caspase inhibitor Q-VD-Oph (XG7 and OPM-2 cells): partially inhibited
interaction effect, combined with AZD5991 (XG-7 cells; XG-7, 96 h): additive effect
interaction effect, combined with Lenalidomide (XG-7 cells; XG-7, 96 h): synergy
interaction effect, combined with Pomalidomide (XG-7 cells; XG-7, 96 h): synergy
interaction effect, combined with carfilzomib (XG-7 cells; XG-7, 96 h): additive effect
interaction effect, combined with melphalan (XG-7 cells; XG-7 or XG2 WT, 96 h): synergistic effect
MYC protein expression (MYC): significant downregulation
apoptosis induction [1]: induces apoptosis
